These results are taken from article PMC3356457 (Nature, 2012).

Like-named read-outs stand apart in the source and are kept apart here.

One assay deals with hKOR E297A (Homo sapiens, UniProt P41145, E297A). The assay is classed as binding.
The conditions of assay [1]: cited from earlier work.
The subject of assay [2] is KOR. The settings on record: cited from earlier work.
Assay [3] concerns the target KOR (Homo sapiens, UniProt P41145). The class given is cell-based.
For assay [4] the following is noted: cited from earlier work. The source holds these as a separate data set.
Assay [5] deals with KOR. The following applies: cited from earlier work. The source holds these as a separate data set.
In assay [6] the test system is KOR. The following applies: agonist; cited from earlier work.
Assay [7] deals with KOR. The settings on record: cited from earlier work. This is another data set of the same source.

Sequence of hKOR E297A (P41145 whole entry E297A): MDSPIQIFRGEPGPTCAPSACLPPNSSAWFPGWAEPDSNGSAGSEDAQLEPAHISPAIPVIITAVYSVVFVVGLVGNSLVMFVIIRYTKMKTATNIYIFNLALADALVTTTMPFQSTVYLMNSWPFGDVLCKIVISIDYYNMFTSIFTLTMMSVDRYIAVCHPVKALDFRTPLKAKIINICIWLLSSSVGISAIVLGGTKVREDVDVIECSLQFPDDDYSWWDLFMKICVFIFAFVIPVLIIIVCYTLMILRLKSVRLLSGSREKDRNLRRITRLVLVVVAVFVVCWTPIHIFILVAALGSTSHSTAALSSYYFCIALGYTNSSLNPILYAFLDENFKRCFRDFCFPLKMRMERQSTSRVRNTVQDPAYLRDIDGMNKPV
Sequence of KOR (Homo sapiens, UniProt P41145) (P41145 whole entry): as the sequence (P41145 whole entry E297A) above, with A297E counted along it

For `NC(N)=Nc1ccc2[nH]c3c(c2c1)C[C@@]1(O)[C@H]2Cc4ccc(O)c5c4[C@@]1(CCN2CC1CC1)[C@H]3O5` [GNTI], the “Effect of Glu297Ala mutation on binding” value on hKOR E297A was “significant drop”.
Turning to `CC(C)[C@@H](CN1CC[C@@](C)(c2cccc(O)c2)[C@@H](C)C1)NC(=O)[C@H]1Cc2ccc(O)cc2CN1` [JDTic, (3R)-7-hydroxy-N-[(1S)-1-(((3R,4R)-4-(3-hydroxyphenyl)-3,4-dimethyl-1-piperidinyl)methyl)-2-methylpropyl]-1,2,3,4-tetrahydro-3-isoquinoline-carboxamide], the “Effect on μ-agonist induced analgesia” value in assay [1] was “not antagonizing”. In addition, the “Effect on κ-agonist U50,488-induced antinociception” value in the assay on KOR [2] is on record as “blocks”. At hKOR E297A, the “Effect of Glu297Ala mutation on binding” value was “did not affect”. Also, on KOR [3], the “Agonist activity, Gi-mediated (canonical) signaling” value is given as “devoid of agonist activity” and the “Blockade of the effects of agonist U69593, Gi-mediated signaling” value is “completely blocked”. Besides, the “Activity in rodent models of depression, anxiety, stress-induced cocaine relapse, and nicotine withdrawal” value in assay [4] is listed as “robust activity”.
In general, Ki refers to a dissociation constant, usually derived from enzyme kinetics or from competition with a known ligand. As a reminder, the EC50 is the concentration giving half of the maximal effect. Take `COC(=O)[C@@H]1C[C@H](OC(=O)CSC#N)C(=O)[C@H]2[C@@]1(C)CC[C@H]1C(=O)O[C@H](c3ccoc3)C[C@]21C` [RB-64, 22-thiocyanatosalvinorin A]: at KOR [5], the Ki was 0.59 nM. In the assay with KOR [6], the EC50 is 0.077 nM.
In the case of `COC(=O)[C@@H]1C[C@H](OC(C)=O)C(=O)[C@H]2[C@@]1(C)CC[C@H]1C(=O)O[C@H](c3ccoc3)C[C@]21C` [Salvinorin A], in the assay on KOR [7], the KOR selectivity is […]. The half-maximal effective concentration (EC50) in the assay with KOR [7] (read-out: EC50, KOR agonist) was […].
